In patent publication US8722681B2, “N-sulfonyl thiazolylpiperazine derivatives and related N-sulfonyl heterocyclic derivatives for the treatment of neuro degenerative diseases” (NV reMYND, priority 2007, dated 2014):
pEC50: −log10 of the molar value.

System: M17-SYNwt cells
Assay: α-synuclein cytotoxicity assay (LDH leakage from paraquat-treated M17-SYNwt cells)
Type: cell-based, human
Conditions: Table 2; for pEC50: M17-SYNwt cells, paraquat 32 mM, 40 hours, LDH activity; for % inh. (percentage inhibition): inhibition of synuclein toxicity at most effective concentration relative to untreated paraquat cells
Excerpt: An α-synuclein expression plasmid was constructed by sub-cloning the NcoI/XhoI fragment from 212T-SYN(WT) (Griffioen et al., Biochem Biophys Acta (2006) 1762(3):312-318) containing the cDNA of human wild type α-synuclein correspondingly into a standard mammalian expression vector pcDNA3.1 resulting in plasmid pcDNA3.1-SYNwt. Plasmid pcDNA3.1 and pcDNA3.1-SYNwt were transfected to human neuroblastoma cells (ATCC No. CRL-2267) and independent clonal lines with the plasmids stably integrated into the genome were selected. […] Over-expression of α-synuclein in M17-SYNwt cell lines was confirmed by Western analysis.
Due to the high levels of α-synuclein M17-SYNwt cells are exquisitely sensitivity to paraquat, a well-known risk factor of synuclein-dependent neuronal degeneration. In degenerated or dead cells lactate dehydrogenase (LDH) is leaked out of the cells into the extracellular environment due to a loss of plasma-membrane integrity. This principle was used to determine cytotoxicity by quantifying the level of leaked LDH into the growth medium.
The detailed method for determining α-synuclein cytotoxicity was as follows: From appropriate precultures of M17 and M17-SYN cells were seeded at 50000 cells/cm^2 in Optimem Reduced Serum without phenol red (InVitrogen, Cat. 31985-047) supplemented with 5% fetal calf serum, 1 mM sodium pyruvate, 1×non-essential amino acids, 500 μg/ml G418 0.5×antibiotic/antimycotic. After 3 hours of incubation at 37° C./5% CO2 paraquat was added to the cells (final concentration of 32 mM), together with the test compound and the cells were further incubated for 40 hours. Subsequently, LDH activity was determined using Promega Cytotox 96 Non-Radioactive cytotoxicity assay, (Cat. G1780) according the supplier's instructions.
This α-synuclein expressing neuroblastoma cells made it possible to assess the ability of novel compounds to counteract α-synuclein cytotoxicity. […] Since this method monitors leaked LDH from degenerated or dead cells only non-toxic compounds will be identified as active inhibitors of α-synuclein-mediated cytotoxicity. Lack of toxicity is an important characteristic for compounds to be used as a medicament to patients in need. A compound was considered to be active in this test when it inhibits α-synuclein cytotoxicity by more than 25% relative to untreated M17-SYNwt cells at a concentration of 20 μg/mL or lower. In the experiments, the control group consisted of M17-SYNwt cells treated with DMSO, the untreated paraquat group consisted of M17-SYNwt cells treated with paraquat and DMSO, and the treated paraquat group consisted of M17-SYNwt cells treated with paraquat and the test compound dissolved in DMSO.
Percent inhibition was calculated as the synuclein toxicity inhibition by the compound in treated paraquat cells, relative to the synuclein cytotoxicity in untreated paraquat cells.
The compounds from table 1 were screened for activity using the α-synuclein cytotoxicity assay as described above. Dose responses were carried out on all compounds found to be active (10 point curves in duplicate).

SMILES | pEC50 (Homo sapiens) | % inh. (percentage inhibition) | pEC50
COC(=O)COc1ccc(S(=O)(=O)N2CCN(c3nc(-c4ccc(C)cc4)cs3)CC2)cc1 [Compound 33, Methyl 2-(4-(4-(4-p-tolylthiazol-2-yl)piperazin-1-ylsulfonyl)phenoxy)acetate] | 7.29 | 21% | –
CC(=O)NCCc1ccc(S(=O)(=O)N2CCN(c3nc(-c4ccccc4)cs3)CC2)cc1 [Compound 34, N-(4-(4-(4-phenylthiazol-2-yl)piperazin-1-ylsulfonyl)phenethyl)acetamide] | 5.51 | 46% | –
COc1cccc(-c2csc(N3CCN(S(=O)(=O)c4ccc(F)cc4)CC3)n2)c1 [Compound 35, 1-(4-fluorophenylsulfonyl)-4-(4-(3-methoxyphenyl)thiazol-2-yl)piperazine] | – | 90% | 6.67
COc1ccc(OC)c(S(=O)(=O)N2CCN(c3nc(-c4ccccc4)cs3)CC2)c1 [Compound 36, 1-(2,5-dimethoxyphenylsulfonyl)-4-(4-phenylthiazol-2-yl)piperazine] | 6.02 | 121% | –
COc1ccc(OC)c(S(=O)(=O)N2CCN(c3nc(-c4ccc(Cl)cc4)cs3)CC2)c1 [Compound 37, 1-(4-(4-chlorophenyl)thiazol-2-yl)-4-(2,5-dimethoxyphenylsulfonyl)piperazine] | 5.89 | 74% | –
COc1ccc(-c2csc(N3CCN(S(=O)(=O)c4ccc(OC)c(OC)c4)CC3)n2)cc1 [Compound 38, 1-(3,4-dimethoxyphenylsulfonyl)-4-(4-(4-methoxyphenyl)thiazol-2-yl)piperazine] | 5.97 | 65% | –
COc1ccc(-c2csc(N3CCN(S(=O)(=O)c4cc(OC)ccc4OC)CC3)n2)cc1 [Compound 39, 1-(2,5-dimethoxyphenylsulfonyl)-4-(4-(4-methoxyphenyl)thiazol-2-yl)piperazine] | 5.17 | 107% | –
Cc1ccc(S(=O)(=O)N2CCN(c3nc(-c4ccccc4)cs3)CC2)cc1 [Compound 44, 1-(4-phenylthiazol-2-yl)-4-tosylpiperazine] | 6.71 | 72% | –
COc1ccc(S(=O)(=O)N2CCN(Cc3nc(-c4ccc(F)cc4)cs3)CC2)cc1 [Compound 47, 1-((4-(4-fluorophenyl)thiazol-2-yl)methyl)-4-(4-methoxyphenylsulfonyl)piperazine] | 7.40 | 86% | –
COc1ccc(S(=O)(=O)N2CCC(c3nc(-c4ccc(F)cc4)cs3)CC2)cc1 [Compound 48, 4-(4-(4-fluorophenyl)thiazol-2-yl)-1-(4-methoxyphenylsulfonyl)piperidine] | 7.31 | 90% | –
COc1ccc(S(=O)(=O)N2CCN(c3nc(-c4ccncc4)cs3)CC2)cc1 [Compound 49, 1-(4-methoxyphenylsulfonyl)-4-(4-(pyridin-4-yl)thiazol-2-yl)piperazine] | 7.12 | 114% | –
COc1ccc(F)cc1S(=O)(=O)N1CCN(c2nc(-c3ccc(C)cc3)cs2)CC1 [Compound 50, 1-(5-fluoro-2-methoxyphenylsulfonyl)-4-(4-(4-methylphenyl)thiazol-2-yl)piperazine] | 5.75 | 104% | –
COc1cc(F)ccc1S(=O)(=O)N1CCN(c2nc(-c3ccc(C)cc3)cs2)CC1 [Compound 51, 1-(4-fluoro-2-methoxyphenylsulfonyl)-4-(4-(4-methylphenyl)thiazol-2-yl)piperazine] | 5.60 | 88% | –
O=S(=O)(c1cccnc1)N1CCN(c2nc(-c3ccc(F)cc3)cs2)CC1 [Compound 54, 1-(4-(4-fluorophenyl)thiazol-2-yl)-4-(pyridin-3-ylsulfonyl)piperazine] | 5.91 | 91% | –
Cc1n[nH]c(C)c1S(=O)(=O)N1CCN(c2nc(-c3ccc(F)cc3)cs2)CC1 [Compound 55, 1-(4-(4-fluorophenyl)thiazol-2-yl)-4-(3,5-dimethyl-1H-pyrazol-4-ylsulfonyl)piperazine] | 6.18 | 91% | –
O=S(=O)(c1ccc(Cl)s1)N1CCN(c2nc(-c3ccccc3)cs2)CC1 [Compound 56, 1-(5-chlorothiophen-2-ylsulfonyl)-4-(4-phenylthiazol-2-yl)piperazine] | 6.12 | 98% | –
COc1ccc(-c2csc(N3CCN(S(=O)(=O)c4cccs4)CC3)n2)cc1 [Compound 57, 1-(thiophen-2-ylsulfonyl)-4-(4-(4-methoxyphenyl)thiazol-2-yl)piperazine] | 6.14 | 88% | –
O=S(=O)(c1cccs1)N1CCN(c2nc(-c3ccc(Cl)cc3)cs2)CC1 [Compound 58, 1-(thiophen-2-ylsulfonyl)-4-(4-(4-chlorophenyl)thiazol-2-yl)piperazine] | 5.43 | 99% | –
O=[N+]([O-])c1ccc(-c2csc(N3CCN(S(=O)(=O)c4cccs4)CC3)n2)cc1 [Compound 60, 1-(thiophen-2-ylsulfonyl)-4-(4-(4-nitrophenyl)thiazol-2-yl)piperazine] | 5.91 | 79% | –
O=S(=O)(N1CCCC1)N1CCN(c2nc(-c3ccccc3)cs2)CC1 [Compound 61, 1-(4-phenylthiazol-2-yl)-4-(pyrrolidin-1-ylsulfonyl)piperazine] | 5.76 | 127% | –
Cc1ccc(-c2csc(N3CCN(S(=O)(=O)N4CCCC4)CC3)n2)cc1 [Compound 62, 1-(4-(4-methylphenyl)thiazol-2-yl)-4-(pyrrolidin-1-ylsulfonyl)piperazine] | 5.71 | 112% | –
COc1ccc(-c2csc(N3CCN(S(=O)(=O)N4CCCC4)CC3)n2)cc1 [Compound 63, 1-(4-(4-methoxyphenyl)thiazol-2-yl)-4-(pyrrolidin-1-ylsulfonyl)piperazine] | 5.50 | 69% | –
O=S(=O)(c1ccc2c(c1)OCCO2)N1CCN(c2nc(-c3ccccc3)cs2)CC1 [Compound 69, 1-(2,3-dihydrobenzo[b][1,4]dioxin-6-ylsulfonyl)-4-(4-phenylthiazol-2-yl)piperazine] | 6.36 | 89% | –
COc1ccc(-c2csc(N3CCN(S(=O)(=O)c4ccc5c(c4)OCCO5)CC3)n2)cc1 [Compound 70, 1-(2,3-dihydrobenzo[b][1,4]dioxin-6-ylsulfonyl)-4-(4-(4-methoxyphenyl)thiazol-2-yl)piperazine] | 5.71 | 83% | –
O=[N+]([O-])c1ccc(-c2csc(N3CCN(S(=O)(=O)c4ccc5c(c4)OCCO5)CC3)n2)cc1 [Compound 71, 1-(2,3-dihydrobenzo[b][1,4]dioxin-6-ylsulfonyl)-4-(4-(4-nitrophenyl)thiazol-2-yl)piperazine] | 5.84 | 77% | –
O=[N+]([O-])c1cccc(-c2csc(N3CCN(S(=O)(=O)c4ccc5c(c4)OCCO5)CC3)n2)c1 [Compound 72, 1-(2,3-dihydrobenzo[b][1,4]dioxin-6-ylsulfonyl)-4-(4-(3-nitrophenyl)thiazol-2-yl)piperazine] | 4.63 | 85% | –
O=S(=O)(c1cccc2nonc12)N1CCN(c2nc(-c3ccc(F)cc3)cs2)CC1 [Compound 74, 4-(4-(4-(4-fluorophenyl)thiazol-2-yl)piperazin-1-ylsulfonyl)benzo[c][1,2,5]oxadiazole] | 6.63 | 41% | –
O=S(=O)(c1ccc2ccccc2c1)N1CCN(c2nc(-c3ccc(Cl)cc3)cs2)CC1 [Compound 75, 1-(4-(4-chlorophenyl)thiazol-2-yl)-4-(naphthalen-2-ylsulfonyl)piperazine] | 6.06 | 84% | –
COc1ccccc1-c1csc(N2CCN(S(=O)(=O)c3cccc4c3ccn4C)CC2)n1 [Compound 77, 4-(4-(4-(2-methoxyphenyl)thiazol-2-yl)piperazin-1-ylsulfonyl)-1-methyl-1H-indole] | 6.59 | 69% | –
